One compound from US11572590B2, “Methods for evaluating tumor cell spheroids using 3D microfluidic cell culture device” (Dana-Farber Cancer Institute, Inc., priority 2017, dated 2023) can be followed below.

Read-outs that look alike come from different tables or passages of the source.

Test in all cases: SelectScreen Kinase Profiling, single point inhibition and IC50 for off-target kinases
Holding throughout (format): biochemical

The target in test [1] is off-target kinases (Homo sapiens, UniProt P00533, L858R/T790M). To be noted: EGFR (ErbB1) T790M L858R, mutant y, ZLYTE, ATP Km app.
Test [2] has as its target T1, off-target kinases (Homo sapiens, UniProt Q8IW41).
T1 sequence (Q8IW41 1-473): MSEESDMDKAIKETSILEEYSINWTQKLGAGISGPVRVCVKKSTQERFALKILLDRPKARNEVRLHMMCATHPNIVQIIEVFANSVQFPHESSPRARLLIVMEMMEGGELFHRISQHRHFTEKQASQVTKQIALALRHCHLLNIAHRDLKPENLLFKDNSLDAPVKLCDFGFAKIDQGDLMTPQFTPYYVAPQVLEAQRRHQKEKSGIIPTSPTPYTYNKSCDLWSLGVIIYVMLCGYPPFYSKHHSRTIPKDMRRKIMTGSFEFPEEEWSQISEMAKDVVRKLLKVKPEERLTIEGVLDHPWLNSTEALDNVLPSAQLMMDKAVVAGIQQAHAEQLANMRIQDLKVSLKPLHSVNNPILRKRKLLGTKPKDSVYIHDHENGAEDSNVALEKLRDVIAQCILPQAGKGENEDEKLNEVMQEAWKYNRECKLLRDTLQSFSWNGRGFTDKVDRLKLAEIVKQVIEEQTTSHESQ
To be noted: MAPKAPK5 (PRAK), ZLYTE, ATP Km app.

Test [3] deals with T2, off-target kinases (Homo sapiens, UniProt Q8TF76).
T2 sequence (Q8TF76 1-798): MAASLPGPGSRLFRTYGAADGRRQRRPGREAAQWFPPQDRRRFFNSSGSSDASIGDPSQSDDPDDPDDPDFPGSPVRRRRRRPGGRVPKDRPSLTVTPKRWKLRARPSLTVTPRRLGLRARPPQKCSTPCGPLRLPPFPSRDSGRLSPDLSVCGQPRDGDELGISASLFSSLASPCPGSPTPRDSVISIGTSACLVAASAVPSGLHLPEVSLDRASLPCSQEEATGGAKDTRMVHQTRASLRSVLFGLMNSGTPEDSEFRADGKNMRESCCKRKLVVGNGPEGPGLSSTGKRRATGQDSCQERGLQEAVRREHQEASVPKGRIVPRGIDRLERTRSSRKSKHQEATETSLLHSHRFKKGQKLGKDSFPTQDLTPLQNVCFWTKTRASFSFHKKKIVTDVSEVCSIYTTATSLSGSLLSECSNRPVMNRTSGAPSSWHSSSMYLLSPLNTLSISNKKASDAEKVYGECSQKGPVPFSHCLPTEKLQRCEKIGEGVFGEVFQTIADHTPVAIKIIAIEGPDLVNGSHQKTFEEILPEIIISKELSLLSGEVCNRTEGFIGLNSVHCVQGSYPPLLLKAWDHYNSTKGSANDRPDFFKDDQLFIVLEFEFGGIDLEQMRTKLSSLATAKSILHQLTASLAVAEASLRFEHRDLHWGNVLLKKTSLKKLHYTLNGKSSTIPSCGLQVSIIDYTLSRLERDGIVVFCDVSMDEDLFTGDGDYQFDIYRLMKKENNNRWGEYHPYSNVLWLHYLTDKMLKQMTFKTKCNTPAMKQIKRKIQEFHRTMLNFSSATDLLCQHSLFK
To be noted: GSG2 (Haspin); Cmpd1 1000 μM; ATP Km app; Adapta.

Test [4] addresses off-target kinases (Homo sapiens, UniProt Q9UM73, C1156Y). To be noted: ALK C1156Y (mutant), LanthaScreen Binding. (In TR-FRET formats the signal depends on donor and acceptor labels being close together.)

Sequence of off-target kinases (Homo sapiens, UniProt Q9UM73, C1156Y) (Q9UM73 19-1620 C1156Y): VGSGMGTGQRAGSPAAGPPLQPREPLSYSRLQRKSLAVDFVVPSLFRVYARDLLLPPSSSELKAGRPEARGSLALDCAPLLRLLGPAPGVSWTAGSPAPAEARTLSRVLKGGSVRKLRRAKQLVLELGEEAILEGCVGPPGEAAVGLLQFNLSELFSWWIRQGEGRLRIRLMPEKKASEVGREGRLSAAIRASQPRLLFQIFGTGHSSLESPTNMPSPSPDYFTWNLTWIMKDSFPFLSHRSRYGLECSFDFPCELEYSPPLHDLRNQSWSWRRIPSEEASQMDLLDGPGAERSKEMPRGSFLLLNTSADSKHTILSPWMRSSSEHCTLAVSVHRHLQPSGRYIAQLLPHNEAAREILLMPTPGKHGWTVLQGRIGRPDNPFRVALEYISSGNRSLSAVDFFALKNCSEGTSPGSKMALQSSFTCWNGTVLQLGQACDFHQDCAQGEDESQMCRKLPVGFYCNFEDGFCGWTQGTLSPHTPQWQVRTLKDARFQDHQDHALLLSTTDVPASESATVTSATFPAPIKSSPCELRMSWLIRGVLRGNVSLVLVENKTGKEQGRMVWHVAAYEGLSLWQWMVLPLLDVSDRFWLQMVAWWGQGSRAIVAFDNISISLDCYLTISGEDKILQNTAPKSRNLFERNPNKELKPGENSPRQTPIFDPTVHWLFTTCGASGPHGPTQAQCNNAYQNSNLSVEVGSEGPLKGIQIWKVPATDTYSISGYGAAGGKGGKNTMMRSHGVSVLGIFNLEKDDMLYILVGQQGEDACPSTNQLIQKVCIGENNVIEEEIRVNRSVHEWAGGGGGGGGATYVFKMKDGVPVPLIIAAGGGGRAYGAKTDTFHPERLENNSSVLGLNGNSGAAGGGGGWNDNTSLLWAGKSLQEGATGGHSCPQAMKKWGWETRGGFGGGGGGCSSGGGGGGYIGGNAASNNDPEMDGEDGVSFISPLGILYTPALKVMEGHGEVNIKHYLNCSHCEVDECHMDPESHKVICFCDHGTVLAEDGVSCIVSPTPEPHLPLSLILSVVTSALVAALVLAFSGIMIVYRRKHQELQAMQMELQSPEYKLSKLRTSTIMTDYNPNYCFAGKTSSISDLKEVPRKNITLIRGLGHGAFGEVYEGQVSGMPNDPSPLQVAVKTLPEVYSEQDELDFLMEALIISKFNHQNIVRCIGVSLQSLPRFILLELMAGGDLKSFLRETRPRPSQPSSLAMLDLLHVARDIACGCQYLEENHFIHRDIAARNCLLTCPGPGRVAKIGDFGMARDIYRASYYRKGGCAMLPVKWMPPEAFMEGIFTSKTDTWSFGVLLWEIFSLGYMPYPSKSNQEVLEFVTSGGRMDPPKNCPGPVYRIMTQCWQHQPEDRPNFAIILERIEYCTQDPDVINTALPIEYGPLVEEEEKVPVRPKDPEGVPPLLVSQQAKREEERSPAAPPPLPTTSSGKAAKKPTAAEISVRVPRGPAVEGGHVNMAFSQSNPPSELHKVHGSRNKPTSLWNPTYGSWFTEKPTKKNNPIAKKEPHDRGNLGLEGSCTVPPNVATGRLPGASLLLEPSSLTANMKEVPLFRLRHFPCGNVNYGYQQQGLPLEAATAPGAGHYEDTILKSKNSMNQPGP
Sequence of off-target kinases (Homo sapiens, UniProt P00533, L858R/T790M) (P00533 25-1210 T790M/L858R): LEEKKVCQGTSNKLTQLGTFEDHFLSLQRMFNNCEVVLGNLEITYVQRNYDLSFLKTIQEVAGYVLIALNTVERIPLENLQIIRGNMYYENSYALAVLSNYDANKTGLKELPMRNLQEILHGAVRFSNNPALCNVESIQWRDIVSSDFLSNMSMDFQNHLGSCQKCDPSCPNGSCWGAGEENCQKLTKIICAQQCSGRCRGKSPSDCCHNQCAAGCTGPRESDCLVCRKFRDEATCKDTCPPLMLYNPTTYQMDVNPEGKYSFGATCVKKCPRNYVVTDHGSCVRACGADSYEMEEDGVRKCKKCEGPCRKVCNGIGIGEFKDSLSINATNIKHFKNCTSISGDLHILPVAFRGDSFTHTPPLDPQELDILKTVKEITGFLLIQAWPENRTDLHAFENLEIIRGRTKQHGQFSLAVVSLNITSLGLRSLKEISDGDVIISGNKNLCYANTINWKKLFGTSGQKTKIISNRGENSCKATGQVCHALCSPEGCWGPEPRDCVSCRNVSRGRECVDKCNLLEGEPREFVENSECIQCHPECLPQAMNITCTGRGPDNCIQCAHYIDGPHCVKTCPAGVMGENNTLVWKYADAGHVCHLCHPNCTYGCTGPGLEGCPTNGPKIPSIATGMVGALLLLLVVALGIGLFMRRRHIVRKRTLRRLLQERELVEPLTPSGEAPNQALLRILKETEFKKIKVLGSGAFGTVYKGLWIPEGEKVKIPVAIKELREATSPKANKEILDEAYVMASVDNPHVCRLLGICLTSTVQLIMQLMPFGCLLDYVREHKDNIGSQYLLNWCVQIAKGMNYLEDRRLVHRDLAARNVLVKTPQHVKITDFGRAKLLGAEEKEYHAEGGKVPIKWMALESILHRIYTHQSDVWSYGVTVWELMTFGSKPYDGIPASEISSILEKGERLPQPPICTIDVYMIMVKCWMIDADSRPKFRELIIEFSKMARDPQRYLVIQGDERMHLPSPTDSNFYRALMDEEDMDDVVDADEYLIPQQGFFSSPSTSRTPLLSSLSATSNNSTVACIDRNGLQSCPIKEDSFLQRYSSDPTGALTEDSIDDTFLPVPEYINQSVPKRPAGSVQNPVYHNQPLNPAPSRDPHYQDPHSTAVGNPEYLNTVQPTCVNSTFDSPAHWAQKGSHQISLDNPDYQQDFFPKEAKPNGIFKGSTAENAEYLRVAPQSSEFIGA

Turning to `N#Cc1cc(-c2ncnc(Nc3ccc(N4CCN(C5COC5)CC4)cc3)n2)ccc1OC1CCOCC1` [Compound 1, 5-(4-((4-(4-(oxetan-3-yl)piperazin-1-yl)phenyl)amino)-1,3,5-triazin-2-yl)-2-((tetrahydro-2H-pyran-4-yl)oxy)benzonitrile], the inhibition is 34% on off-target kinases [1] (read-out: % Inhibition 1); 29% at off-target kinases [1] (read-out: % Inhibition 2); 31% on off-target kinases [1] (read-out: % Inhibition Avg); 6% at off-target kinases [2] (read-out: % Inhibition 1); 7% at off-target kinases [2] (read-out: % Inhibition 2); 6% on off-target kinases [2] (read-out: % Inhibition Avg). Also, the inhibition at off-target kinases [4] (read-out: % Inhibition 1) is 7%; at off-target kinases [4] (read-out: % Inhibition 2), 12%; on off-target kinases [4] (read-out: % Inhibition Avg), 9%. For the same compound, at off-target kinases [3], the “% Inhibition 1” value is recorded as 7%. Moreover, on off-target kinases [3], the “% Inhibition 2” value is listed as −20%. The “% Inhibition Avg” value at off-target kinases [3] is on record as −6%.

By inhibition is commonly meant the share of the control response that was lost under treatment.
